The text below walks through data of patent publication US20110282056A1, “PROTEIN KINASE INHIBITORS AND USE THEREOF” (priority 2008, published 2011).

SMILES strings stand for the structures. A value given as a limit tells only on which side of the number the result lay.

Common to all, as to assay type: biochemical
One experiment has as its target T1, VEGFR3 (Homo sapiens, UniProt P35916).
T1 construct: purchased Millpore Corp. (Millipore) 14-681
The experiment in a line: VEGFR3 enzyme activity assay (Caliper LC3000 mobility shift). As to conditions: 400 uM ATP (Km), 0.4 nM VEGFR3, 90 minutes at RT. As to the method: (§1) Enzyme activity for VEGFR3, VEGFR2 and Flt3 were measured on the Caliper Life Sciences LC3000 (Hopkinton, Mass.). The system utilizes the principle of electroosmotic flow to separate and quantify the amount of phosphorylated-Fluorescein-labelled-peptide (product) from unphosphorylated-Fluorescein-labelled peptide (substrate). The amount of product and substrate are determined by measuring the peak heights from the electropherogram. The enzyme activity is then quantified by dividing the amount of product by the sum of the product and substrate. The inhibitory activity of a sample is measured by comparing the enzyme activity in the presence of sample versus the enzyme activity in the presence of dimethylsufoxide (DMSO). Specific assay conditions for each enzyme are listed below:
VEGFR3 assay: The peptide substrate at 1 uM (FITC-KKKKEEIYFFF-CONH2; synthesized at Tufts University, Boston, Mass.) was incubated with 400 uM of ATP, corresponding to the Michaelis-Menten (Km) constant of the enzyme/substrate reaction, and 0.4 nM of VEGFR3 (Millpore Corp., Cat. No. 14-681) for 90 minutes at RT. After 90 minutes, the reaction was stopped by the addition of 10 mM EDTA. The substrate and product were then separated on the LC3000.

The next experiment addresses T2, VEGFR2 (Homo sapiens, UniProt P35968).
T2 construct: purchased BPS Bioscience; San Diego, Calif; 40301
The experiment in a line: VEGFR2 enzyme activity assay (Caliper LC3000 mobility shift). As to conditions: 160 uM ATP (Km), 1 nM VEGFR2, 90 minutes at RT. The method, then: as §1
VEGFR2 assay: The peptide substrate at 1 uM (5-FL-EEPLYWSFPAKKK-CONH2; synthesized at Tufts University, Boston, Mass.) was incubated with 160 uM of ATP, corresponding to the Michaelis-Menten (Km) constant of the enzyme/substrate reaction, and 1 nM of VEGFR2 (BPS Bioscience; San Diego, Calif.; Cat. No. 40301) for 90 minutes at RT. After 90 minutes, the reaction was stopped by the addition of 10 mM EDTA. The substrate and product were then separated on the LC3000.

In another experiment the target is T3, Flt3 (Homo sapiens, UniProt P36888).
T3 construct: purchased BPS Bioscience; San Diego, Calif; 40225
T3 sequence (P36888 27-993): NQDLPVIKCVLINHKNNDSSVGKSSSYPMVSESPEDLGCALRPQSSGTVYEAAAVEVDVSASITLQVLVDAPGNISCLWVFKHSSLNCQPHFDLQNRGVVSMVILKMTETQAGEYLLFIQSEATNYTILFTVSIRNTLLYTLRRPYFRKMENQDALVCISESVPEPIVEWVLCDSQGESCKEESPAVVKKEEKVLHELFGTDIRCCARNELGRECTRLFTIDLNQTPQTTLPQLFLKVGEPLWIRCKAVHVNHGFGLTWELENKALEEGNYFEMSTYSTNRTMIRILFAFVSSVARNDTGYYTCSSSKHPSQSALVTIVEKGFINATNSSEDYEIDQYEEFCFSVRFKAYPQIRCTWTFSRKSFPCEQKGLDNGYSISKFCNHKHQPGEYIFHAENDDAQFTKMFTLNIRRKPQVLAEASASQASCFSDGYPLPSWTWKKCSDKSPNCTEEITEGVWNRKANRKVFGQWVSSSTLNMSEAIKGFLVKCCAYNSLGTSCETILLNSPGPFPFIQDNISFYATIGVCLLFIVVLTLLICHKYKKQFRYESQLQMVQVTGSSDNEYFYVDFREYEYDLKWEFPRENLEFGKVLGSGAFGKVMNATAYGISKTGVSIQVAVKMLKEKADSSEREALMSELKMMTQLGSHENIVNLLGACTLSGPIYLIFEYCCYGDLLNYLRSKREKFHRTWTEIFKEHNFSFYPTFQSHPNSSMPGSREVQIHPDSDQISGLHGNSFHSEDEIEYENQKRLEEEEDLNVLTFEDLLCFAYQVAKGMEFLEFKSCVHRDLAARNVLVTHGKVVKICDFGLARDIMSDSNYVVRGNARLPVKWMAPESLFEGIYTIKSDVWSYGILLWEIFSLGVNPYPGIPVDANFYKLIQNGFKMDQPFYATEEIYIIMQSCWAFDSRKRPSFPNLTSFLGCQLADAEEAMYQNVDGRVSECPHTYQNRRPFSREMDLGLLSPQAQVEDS
The experiment in a line: Flt3 enzyme activity assay (Caliper LC3000 mobility shift). As to conditions: 350 uM ATP (Km), 3 nM Flt3, 90 minutes at RT. The method, then: as §1
Flt3 assay: The peptide substrate at 1 uM (FITC-AHA-UEAIYAAPFAKKK-CONH2; synthesized at Tufts University, Boston, Mass.) was incubated with 350 uM of ATP, corresponding to the Michaelis-Menten (Km) constant of the enzyme/substrate reaction, and 3 nM of Flt3 (BPS Bioscience; San Diego, Calif.; Cat. No. 40225) for 90 minutes at RT. After 90 minutes, the reaction was stopped by the addition of 10 mM EDTA. The substrate and product were then separated on the LC3000.

T2 sequence (P35968 20-1356): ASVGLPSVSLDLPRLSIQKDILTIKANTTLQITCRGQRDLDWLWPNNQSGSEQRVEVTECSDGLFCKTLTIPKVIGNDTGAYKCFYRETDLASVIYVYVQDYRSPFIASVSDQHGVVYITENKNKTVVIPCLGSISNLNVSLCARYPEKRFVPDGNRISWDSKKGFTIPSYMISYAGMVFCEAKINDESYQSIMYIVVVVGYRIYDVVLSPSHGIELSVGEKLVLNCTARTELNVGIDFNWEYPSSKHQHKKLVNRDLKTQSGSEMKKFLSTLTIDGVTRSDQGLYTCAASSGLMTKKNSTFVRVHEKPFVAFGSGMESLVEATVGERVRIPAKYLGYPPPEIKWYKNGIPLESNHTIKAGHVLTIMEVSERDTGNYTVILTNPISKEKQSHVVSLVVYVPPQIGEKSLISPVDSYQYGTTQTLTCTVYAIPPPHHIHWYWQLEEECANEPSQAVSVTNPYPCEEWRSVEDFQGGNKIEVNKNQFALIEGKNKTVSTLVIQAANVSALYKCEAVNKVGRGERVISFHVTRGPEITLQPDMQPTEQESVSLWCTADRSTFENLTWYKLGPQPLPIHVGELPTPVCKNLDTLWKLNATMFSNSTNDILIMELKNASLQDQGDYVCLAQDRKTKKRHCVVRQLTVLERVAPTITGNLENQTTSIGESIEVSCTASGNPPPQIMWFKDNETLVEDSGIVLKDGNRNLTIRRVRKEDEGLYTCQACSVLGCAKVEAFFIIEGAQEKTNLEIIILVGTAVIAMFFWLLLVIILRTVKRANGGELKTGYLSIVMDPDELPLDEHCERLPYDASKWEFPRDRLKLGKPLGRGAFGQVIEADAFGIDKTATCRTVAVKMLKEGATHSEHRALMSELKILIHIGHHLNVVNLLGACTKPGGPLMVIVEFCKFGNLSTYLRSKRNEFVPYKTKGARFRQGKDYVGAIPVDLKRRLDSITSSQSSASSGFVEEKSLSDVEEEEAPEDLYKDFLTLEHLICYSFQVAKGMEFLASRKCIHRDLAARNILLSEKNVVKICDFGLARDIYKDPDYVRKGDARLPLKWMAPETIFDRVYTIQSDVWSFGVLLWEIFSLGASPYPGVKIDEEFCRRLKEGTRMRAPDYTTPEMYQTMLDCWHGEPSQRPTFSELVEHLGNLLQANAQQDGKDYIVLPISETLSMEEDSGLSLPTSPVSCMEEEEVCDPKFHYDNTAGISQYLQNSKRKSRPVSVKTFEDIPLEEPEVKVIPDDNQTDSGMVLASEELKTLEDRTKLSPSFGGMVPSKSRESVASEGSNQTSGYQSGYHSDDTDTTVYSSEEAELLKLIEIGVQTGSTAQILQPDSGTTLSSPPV
T1 sequence (P35916 25-1363): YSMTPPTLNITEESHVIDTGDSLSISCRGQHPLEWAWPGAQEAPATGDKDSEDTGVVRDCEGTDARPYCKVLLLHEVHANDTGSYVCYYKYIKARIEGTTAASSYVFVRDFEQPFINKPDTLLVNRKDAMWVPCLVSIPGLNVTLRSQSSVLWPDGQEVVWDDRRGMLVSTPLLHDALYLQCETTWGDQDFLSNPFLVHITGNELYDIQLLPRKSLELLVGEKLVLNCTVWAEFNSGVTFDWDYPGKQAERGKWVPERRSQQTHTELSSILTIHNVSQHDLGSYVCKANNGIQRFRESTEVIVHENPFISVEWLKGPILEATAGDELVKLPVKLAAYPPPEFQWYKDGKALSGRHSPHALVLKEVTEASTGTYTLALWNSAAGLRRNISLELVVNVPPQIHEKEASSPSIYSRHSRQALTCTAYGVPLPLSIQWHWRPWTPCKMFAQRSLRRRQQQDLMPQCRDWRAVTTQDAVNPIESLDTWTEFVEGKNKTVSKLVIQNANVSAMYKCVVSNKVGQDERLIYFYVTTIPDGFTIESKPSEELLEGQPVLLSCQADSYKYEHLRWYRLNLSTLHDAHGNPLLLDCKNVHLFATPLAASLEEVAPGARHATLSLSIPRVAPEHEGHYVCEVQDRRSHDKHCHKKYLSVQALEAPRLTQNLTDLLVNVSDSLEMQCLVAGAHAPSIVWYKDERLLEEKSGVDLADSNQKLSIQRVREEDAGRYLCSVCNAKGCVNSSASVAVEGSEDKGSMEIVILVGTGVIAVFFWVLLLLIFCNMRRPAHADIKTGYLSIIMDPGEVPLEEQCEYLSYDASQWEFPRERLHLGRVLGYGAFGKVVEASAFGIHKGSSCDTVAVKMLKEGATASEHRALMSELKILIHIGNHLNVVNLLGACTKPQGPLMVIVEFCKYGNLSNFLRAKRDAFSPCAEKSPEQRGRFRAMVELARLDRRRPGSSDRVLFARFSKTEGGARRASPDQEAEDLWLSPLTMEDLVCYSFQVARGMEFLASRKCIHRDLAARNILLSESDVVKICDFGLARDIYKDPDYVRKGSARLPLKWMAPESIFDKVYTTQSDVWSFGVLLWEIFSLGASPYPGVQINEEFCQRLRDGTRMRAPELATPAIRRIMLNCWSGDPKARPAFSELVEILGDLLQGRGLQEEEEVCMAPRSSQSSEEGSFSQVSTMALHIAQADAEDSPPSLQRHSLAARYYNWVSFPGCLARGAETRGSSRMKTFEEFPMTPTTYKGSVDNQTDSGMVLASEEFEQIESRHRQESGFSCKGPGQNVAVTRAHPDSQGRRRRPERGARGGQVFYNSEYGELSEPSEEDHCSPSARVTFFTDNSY

Turning to `COc1ccc(CNC(=O)Cc2ccccc2C#Cc2ccnc3[nH]ccc23)cc1` [compound 75], the half-maximal inhibitory concentration (IC50) at VEGFR3, at VEGFR2 and at Flt3 was above 1000 nM throughout.

In the case of `O=C(c1ccc(C#Cc2ccnc3[nH]ccc23)cc1)C1CC1` [compound 134], the IC50 on VEGFR3, at VEGFR2 and at Flt3 was above 1000 nM in each case.

Regarding `C#Cc1ncnc2[nH]ccc12` [compound 111], the 50% inhibitory concentration (IC50) at VEGFR3, on VEGFR2 and on Flt3 was above 1000 nM throughout.

Regarding `Cc1ccc(C#Cc2ccnc3[nH]ccc23)cc1` [compound 70], the values for the IC50 at VEGFR3, at VEGFR2 and on Flt3 were 100 to 1000 nM, above 1000 nM and above 1000 nM, respectively.

Consider `COC(=O)c1ccc(C#Cc2ccnc3[nH]ccc23)cc1` [compound 130], for which the IC50 on VEGFR3, at VEGFR2 and on Flt3 was above 1000 nM in each case.

Regarding `CC(=O)Nc1ccc(C#Cc2ccnc3[nH]ccc23)cc1` [compound 67], the results for the IC50 at VEGFR3, on VEGFR2 and at Flt3 were 100 to 1000 nM, above 1000 nM and above 1000 nM, respectively.

On to `C(#Cc1ncnc2sc3c(c12)CCCC3)c1ccccc1` [compound 97], for which the IC50 on VEGFR3, on VEGFR2 and on Flt3 was above 1000 nM throughout.

In the case of `C(#Cc1ccnc2[nH]ccc12)c1cccc(-c2ccccc2)c1` [compound 98], the IC50 at VEGFR3, at VEGFR2 and on Flt3 was above 1000 nM in each case.

On to `C(#Cc1ccnc2[nH]ccc12)c1cccc(-c2cc[nH]n2)c1` [compound 53], for which the half-maximal inhibitory concentration (IC50) on VEGFR3 is 100 to 1000 nM; at VEGFR2, above 1000 nM; on Flt3, above 1000 nM.

On to `C(#Cc1ccnc2[nH]ccc12)c1cccc(-n2cccc2)c1` [compound 92], for which the IC50 on VEGFR3, on VEGFR2 and on Flt3 was above 1000 nM throughout.

Regarding `C(#Cc1ccnc2[nH]ccc12)c1ccc(N2CCOCC2)cc1` [compound 128], the IC50 at VEGFR3, at VEGFR2 and at Flt3 was above 1000 nM throughout.

As to `COc1ccc(C#Cc2cnc3[nH]ccc3c2)cc1` [compound 138], the IC50 at VEGFR3, at VEGFR2 and on Flt3 was above 1000 nM throughout.

Consider `Fc1cccc(C#Cc2ccnc3[nH]ccc23)c1` [compound 59], for which the concentration for half-maximal inhibition (IC50) was 100 to 1000 nM on VEGFR3, above 1000 nM at VEGFR2 and above 1000 nM on Flt3.

On to `CCc1ccccc1C#Cc1ccnc2[nH]ccc12` [compound 64], for which the figures for the half-inhibitory concentration (IC50) at VEGFR3, at VEGFR2 and at Flt3 were 100 to 1000 nM, above 1000 nM and above 1000 nM, respectively.

Turning to `Cc1ccccc1C#Cc1ccnc2[nH]ccc12` [compound 69], the results for the IC50 at VEGFR3, at VEGFR2 and at Flt3 were 100 to 1000 nM, above 1000 nM and above 1000 nM, respectively.

As to `FC(F)(F)Oc1ccccc1C#Cc1ccnc2[nH]ccc12` [compound 78], the IC50 on VEGFR3, at VEGFR2 and on Flt3 was above 1000 nM in each case.

As to `CC(=O)c1ccc(C#Cc2ccnc3[nH]ccc23)nc1` [compound 115], the concentration for half-maximal inhibition (IC50) on VEGFR3, on VEGFR2 and on Flt3 was above 1000 nM in each case.

Consider `C(#Cc1ccnc2[nH]ccc12)c1ccccc1-c1cccs1` [compound 101], for which the IC50 on VEGFR3, at VEGFR2 and on Flt3 was above 1000 nM in each case.

In the case of `Nc1ccccc1C#Cc1cnc2[nH]ccc2c1` [compound 137], the IC50 at VEGFR3, on VEGFR2 and at Flt3 was above 1000 nM throughout.

Turning to `C(#Cc1ccnc2[nH]ccc12)c1cccc2[nH]ccc12` [compound 60], the values for the IC50 on VEGFR3, at VEGFR2 and at Flt3 were 100 to 1000 nM, above 1000 nM and above 1000 nM, respectively.

On to `COc1ccc(C#Cc2ccnc3[nH]ccc23)cc1` [compound 89], for which the half-inhibitory concentration (IC50) at VEGFR3, on VEGFR2 and at Flt3 was above 1000 nM throughout.

For the compound `N#CCc1ccc(C#Cc2ccnc3[nH]ccc23)cc1` [compound 61], the 50% inhibitory concentration (IC50) on VEGFR3 is 100 to 1000 nM; on VEGFR2, above 1000 nM; at Flt3, 100 to 1000 nM.
